Assay results reported in BindingDB's records for doi:10.1016/j.bmc.2013.06.038 (Jagiellonian University Medical College, 2013).

Assays:
[1] = biological target: T1, Sodium- and chloride-dependent GABA transporter 2 (Mus musculus, UniProt P31649); test: Inhibition of mouse GAT2-mediated [3H]GABA uptake stably transfected in HEK293 cells
T1 sequence (P31649 whole entry): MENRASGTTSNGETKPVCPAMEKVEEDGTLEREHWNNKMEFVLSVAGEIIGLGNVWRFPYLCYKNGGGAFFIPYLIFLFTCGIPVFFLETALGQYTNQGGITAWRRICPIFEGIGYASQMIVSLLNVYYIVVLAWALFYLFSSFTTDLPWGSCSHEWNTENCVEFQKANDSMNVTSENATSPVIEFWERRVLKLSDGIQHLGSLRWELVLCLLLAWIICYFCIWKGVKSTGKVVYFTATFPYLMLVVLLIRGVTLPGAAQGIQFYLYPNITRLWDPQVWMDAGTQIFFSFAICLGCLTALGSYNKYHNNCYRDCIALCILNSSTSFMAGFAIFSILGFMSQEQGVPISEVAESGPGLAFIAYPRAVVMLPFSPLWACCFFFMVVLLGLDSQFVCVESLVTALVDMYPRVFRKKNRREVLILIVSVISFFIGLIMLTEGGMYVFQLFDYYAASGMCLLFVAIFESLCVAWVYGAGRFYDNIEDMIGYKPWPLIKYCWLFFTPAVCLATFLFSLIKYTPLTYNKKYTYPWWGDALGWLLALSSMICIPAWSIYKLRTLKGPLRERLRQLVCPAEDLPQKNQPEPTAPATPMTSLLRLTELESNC

[2] = biological target: T2, Sodium- and chloride-dependent GABA transporter 3 (Mus musculus, UniProt P31650); test: Inhibition of mouse GAT3-mediated [3H]GABA uptake stably transfected in HEK293 cells
T2 sequence (P31650 whole entry): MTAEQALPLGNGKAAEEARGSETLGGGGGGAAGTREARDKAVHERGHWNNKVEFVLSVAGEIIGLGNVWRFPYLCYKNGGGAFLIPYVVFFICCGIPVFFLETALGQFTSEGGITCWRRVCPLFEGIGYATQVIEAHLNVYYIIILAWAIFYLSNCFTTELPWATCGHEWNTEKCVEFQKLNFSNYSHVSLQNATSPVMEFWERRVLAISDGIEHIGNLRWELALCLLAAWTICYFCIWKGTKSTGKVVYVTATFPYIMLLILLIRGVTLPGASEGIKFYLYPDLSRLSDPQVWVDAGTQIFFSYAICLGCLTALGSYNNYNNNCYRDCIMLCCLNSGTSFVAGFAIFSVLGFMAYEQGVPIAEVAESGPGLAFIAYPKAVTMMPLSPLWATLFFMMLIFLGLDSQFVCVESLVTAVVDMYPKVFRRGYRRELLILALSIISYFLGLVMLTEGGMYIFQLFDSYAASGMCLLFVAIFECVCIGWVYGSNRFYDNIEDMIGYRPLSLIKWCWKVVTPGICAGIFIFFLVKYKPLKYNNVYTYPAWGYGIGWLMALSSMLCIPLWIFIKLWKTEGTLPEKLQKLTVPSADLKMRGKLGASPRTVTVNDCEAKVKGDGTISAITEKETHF

| SMILES | IC50 [1] | IC50 [2] |
| --- | --- | --- |
| O=C(NCc1ccccc1Cl)C(CCO)N1CCC(=C(c2ccccc2)c2ccccc2)CC1 (centres undefined) | 75.9 µM | 56.2 µM |
| CN(CCCC(c1ccccc1)c1ccccc1)C(CCO)C(=O)NCc1ccc(F)cc1 (centres undefined) | 41.7 µM | 38.9 µM |
| O=C(NCc1ccc(F)cc1)C(CCO)NCCCC(c1ccccc1)c1ccccc1 (centres undefined) | 26.9 µM | 22.9 µM |
| C[C@@H](O)C[C@H](C(=O)NCc1ccccc1)N1CCC(=C(c2ccccc2)c2ccccc2)CC1 | 49 µM | 21.9 µM |
| O=C(NCc1ccc(Cl)cc1)C(CCO)NCCCC(c1ccccc1)c1ccccc1 (centres undefined) | 11 µM | 14.8 µM |
| CN(CCC=C(c1ccccc1)c1ccccc1)C(CCO)C(=O)NCc1ccc(Cl)cc1 (centres undefined) | 13.2 µM | 9.55 µM |
| Cc1ccc(CNC(=O)[C@@H](C[C@H](C)O)N2CCC(=C(c3ccccc3)c3ccccc3)CC2)cc1 | 50.1 µM |  |
| O=C(NCc1ccc(Cl)cc1)C(CCO)N1CCC(=C(c2ccccc2)c2ccccc2)CC1 (centres undefined) | 19.5 µM |  |
| O=C(NCc1ccccc1Cl)C(CCO)NCCCC(c1ccccc1)c1ccccc1 (centres undefined) |  | 18.2 µM |
| Cc1ccc(CNC(=O)C(CCO)NCCCC(c2ccccc2)c2ccccc2)cc1 (centres undefined) | 17 µM |  |
| Cc1ccc(CNC(=O)C(CCO)N(C)CCCC(c2ccccc2)c2ccccc2)cc1 (centres undefined) | 28.8 µM |  |
| CN(CCCC(c1ccccc1)c1ccccc1)C(CCO)C(=O)NCc1ccccc1Cl (centres undefined) | 28.8 µM | 16.2 µM |
| Cc1ccc(CNC(=O)C(CCO)N(C)CCC=C(c2ccccc2)c2ccccc2)cc1 (centres undefined) | 14.5 µM | 11.7 µM |
| CN(CCC=C(c1ccccc1)c1ccccc1)C(CCO)C(=O)NCc1ccccc1Cl (centres undefined) | 12.6 µM |  |
| CN(CCC=C(c1ccccc1)c1ccccc1)C(CCO)C(=O)NCc1ccccc1 (centres undefined) | 26.9 µM | 13.5 µM |
| C[C@H](O)C[C@H](C(=O)NCc1ccccc1)N1CCC(=C(c2ccccc2)c2ccccc2)CC1 | 61.7 µM | 30.9 µM |
| O=C(NCc1ccccc1Cl)C(CCO)N1CCC(C(c2ccccc2)c2ccccc2)CC1 (centres undefined) | 49 µM | 36.3 µM |

| SMILES | IC50 [1] | IC50 [2] |
| --- | --- | --- |
| O=C(NCc1ccccc1)C(CCO)N1CCC(C(c2ccccc2)c2ccccc2)CC1 (centres undefined) |  | 41.7 µM |
| O=C(NCc1ccccc1)C(CCO)NCCCC(c1ccccc1)c1ccccc1 (centres undefined) | 28.8 µM | 35.5 µM |
| Cc1ccc(CNC(=O)[C@@H](C[C@@H](C)O)N2CCC(=C(c3ccccc3)c3ccccc3)CC2)cc1 | 24 µM | 57.5 µM |
| C[C@H](O)C[C@H](C(=O)NCc1ccc(Cl)cc1)N1CCC(=C(c2ccccc2)c2ccccc2)CC1 |  | 42.7 µM |
| Cc1ccc(CNC(=O)C(CCO)N2CCC(C(c3ccccc3)c3ccccc3)CC2)cc1 (centres undefined) | 38 µM | 42.7 µM |
| Cc1ccc(CNC(=O)C(CCO)N2CCC(=C(c3ccccc3)c3ccccc3)CC2)cc1 (centres undefined) | 30.9 µM |  |
| O=C(NCc1ccccc1)C(CCO)N1CCC(=C(c2ccccc2)c2ccccc2)CC1 (centres undefined) | 46.8 µM | 37.2 µM |
| CN(CCCC(c1ccccc1)c1ccccc1)C(CCO)C(=O)NCc1ccccc1 (centres undefined) | 39.8 µM | 32.4 µM |
| C[C@H](O)C[C@H](C(=O)NCc1ccc(F)cc1)N1CCC(=C(c2ccccc2)c2ccccc2)CC1 | 100 µM | 55 µM |
| C[C@@H](O)C[C@H](C(=O)NCc1ccc(F)cc1)N1CCC(=C(c2ccccc2)c2ccccc2)CC1 | 64.6 µM | 26.9 µM |
| O=C(NCc1ccc(F)cc1)C(CCO)N1CCC(=C(c2ccccc2)c2ccccc2)CC1 (centres undefined) | 16.6 µM | 28.2 µM |
| CN(CCC=C(c1ccccc1)c1ccccc1)C(CCO)C(=O)NCc1ccc(F)cc1 (centres undefined) |  | 11.2 µM |
| O=C(NCc1ccc(Cl)cc1)C(CCO)N1CCC(C(c2ccccc2)c2ccccc2)CC1 (centres undefined) | 60.3 µM | 32.4 µM |
| CN(CCCC(c1ccccc1)c1ccccc1)C(CCO)C(=O)NCc1ccc(Cl)cc1 (centres undefined) |  | 13.2 µM |
| C[C@H](O)C[C@H](C(=O)NCc1ccccc1Cl)N1CCC(=C(c2ccccc2)c2ccccc2)CC1 |  | 28.8 µM |
| O=C(NCc1ccc(F)cc1)C(CCO)N1CCC(C(c2ccccc2)c2ccccc2)CC1 (centres undefined) | 55 µM | 34.7 µM |
